In patent publication US12252472B1, “Barbituric acid derivatives, their preparation and use thereof as leukocyte transmigration inhibitors and for treating inflammatory diseases, autoimmune diseases and cancer” (BAR-ILAN UNIVERSITY, priority 2017, dated 2025):

Tests used:
human B-lymphoma cells = test: B-lymphoma homing assay in NOD.CB17-Prkdcscid/J mice; assay type: in vivo
Method: Effect on the homing of the B-lymphocytes was tested in a model of B-cell lymphoma. Compound of Formula 2 (7.5 μM) was injected IV, together with 10×10^6 human B-lymphoma cells. After one and a half hours the amount of B-lymphocytes was tested in different organs.

C57BL/6J mice = test: Acute toxicology in naive mice (blood counts, biochemical tests, histology); assay type: in vivo, mouse
Method: 1% methyl cellulose in DDW solution was prepared by adding 0.5 g methyl cellulose into 50 ml of DDW and stirring the solution at the lowest possible speed (without making bubbles) overnight at room temperature. Formula 2 stock solution was prepared in concertation of 20 mg/ml at room temperature following shown below order of actions: • 1. 30 mg of the compound of Formula 2 was placed in the glass vial together with small magnet. • 2. 1.5 ml of 1% methylcellulose was added by circular (swirled) movement very slow. The entire surface of the vial was gently covered by the solvent and powder was not allowed to float above the liquid. • 3. The resulting suspension was stirred at the lowest possible speed up to 48 hours at room temperature. • 4. Intermediate Formula 2 stock solution at 10 mg/ml concentration was prepared by diluting 20 mg/ml stock solution 1:1 (v/v) with equal amount of DDW. DDW was added to the Formula 2 stock solution. The obtained suspension was stirred at the lowest possible speed for another hour at room temperature. • 5. Formula 2 working solution at 3 mg/ml was prepared by diluting intermediate stock solution (v/v) with DDW accordingly. The working suspension of Formula 2 was stirred at the low speed (˜80-100 rpm) for 30 minutes to 1 hour prior to use in animal experiments.
Eight experimental groups with 5 female 6-7 weeks old C57BL/6J mice each and one control group non treated (naïve) mice were used for the experiment. Mice were administered with daily application of the working suspension of the compound of Formula 2, prepared as described hereinabove, at 5, 10 and 15 mg/kg by intraperitoneal injection (IP) or at 10, 20 and 30 mg/kg by oral gavage (PO). […] Mice from all groups were euthanized with isoflurane 24 hours post last dose administration. Sampling for whole blood counts (WBC) and white blood differentiation: 200 μl of whole blood were collected into EDTA tubes (Greiner MiniCollect K3EDTA tubes). For comprehensive metabolic panel the rest of the whole blood (300-400 μl) was collected for the serum preparation. All blood tests were conducted in American Medical Labs, Herzeliah, Israel. Liver, spleen, lungs, heart and kidneys were collected from each mouse placed to vials with 4% buffered formalin following paraffin embedding and sectioning. Sections from each organ of each animal were stained with H&E and histological evaluation of the tissue was performed.

[1] = tested on: mouse monocytes / macrophages from the abdominal cavity; test: Ten-color flow cytometry (CD115, F4/80) of peritoneal cells from the peritonitis model; assay type: in vivo
Method: After inducing the inflammation (peritonitis), compound of Formula 2 was injected at a concentration of 12.5 mg/kg (DMSO, 01% in PBS, IP), twice (one day after the other). The next day, mice were sacrificed and the peritoneal liquid was collected from the control and treated mice (n=3 for each group). Two assays were conducted for the estimation of the possible anti-inflammatory effect of compound of Formula 2: leukocyte counting (the total amount and the calculation of the percentage of different leukocyte fractions) and a flow cytometry.
Flow cytometry based on a fluorescent protein marker (CD115) was selected for the analysis. It is generated by monocytes and localized to their plasma membrane as described by Yang, J. et al. (Monocyte and macrophage differentiation: circulation inflammatory monocyte as biomarker for inflammatory diseases. Biomark Res, 2014. 2(1): p. 1). This protein is able to specifically recognize and bind a F4/80 antibody that activates the immune system macrophages (Lin, H. H., et al., The macrophage F4/80 receptor is required for the induction of antigen-specific efferent regulatory T cells in peripheral tolerance. Journal of Experimental Medicine, 2005. 201(10): p. 1615-1625).
Cell viability before the FACS experiment was assessed by incubation in the amine-reactive dye Aqua (Invitrogen) (1:500) dilution in Ca^2+ and Mg^2+-free PBS) for 30 minutes in the dark at room temperature (RT), followed by a single wash in PBS. For all experiments, cells were incubated in 0.5 μg Fc Block (BD Biosciences) for 10 minutes at room temperature (RT). Surface staining was performed in the dark for 30 minutes at 4° C. in staining buffer. A surface marker (CD115, APC clone AFS98, in dilution 1:100, from eBioscience) was used. […] Fluorescence minus one (FMO) controls were used for gating analyses to distinguish positively from negatively staining cell populations. […] Compensation matrices were calculated and applied using FlowJo software (Tree Star). […]

[2] = tested on: HUVECs intercellular junctions; test: Phenotypic changes at endothelial junctions (MesenFlow system); assay type: cell-based, human
Source text: This manifestation was termed “Fluttering”. Fluttering was characterized by a rapid fluctuating movement at the intercellular junctions of adjacent HUVECs, and predominantly within tri-cellular corners. This was characterized by a rapid change in phase at the cellular edges consistent with a physical movement that was associated with no leukocytes adhesion or migration within these regions (FIG. 27). […] This observation is therefore representative of a phenotype that is indicative of a disruption in leukocyte transmigration.

[3] = 7.5 μM IV together with 10×10^6 cells, after one and a half hours
[4] = 5, 10, 15 mg/kg IP or 10, 20, 30 mg/kg PO, daily
[5] = abdominal cavity, treated vs non-treated mice, FACS

COC(=O)c1ccc(COc2c(C=C3C(=O)NC(=O)NC3=O)cccc2C(C)(C)C)cc1 [Formula 2, methyl 4-((2-(tert-butyl)-6-((2,4,6-trioxotetrahydropyrimidin-5(2H)-ylidene)methyl)phenoxy)methyl) benzoate]
homing of the cancer cells to the spleen and liver (human B-lymphoma cells; 7.5 μM IV): significantly blocked
reduction of B-lymphocyte homing in liver (human B-lymphoma cells; [3]): around 33%
reduction of B-lymphocyte homing in spleen (human B-lymphoma cells; [3]): around 22%
microstructure of lungs, heart, liver, spleen and kidney tissues (C57BL/6J mice; 3 doses IP): no effect
microstructure of lungs, heart, liver, spleen and kidney tissues (C57BL/6J mice; 3 doses PO): no effect
blood levels of calcium, phosphorus, sodium, potassium, chloride and hemolytic index (C57BL/6J mice; 3 doses PO or 3 doses IP, n=5): no effect
blood levels of creatinine, urea, total protein, albumin, globulin, glucose (C57BL/6J mice; 3 doses PO or 3 doses IP, n=5): no effect
blood levels of total billirubin, alkaline phosphatase, SGOT, SGPT and cholesterol (C57BL/6J mice; 3 doses PO or 3 doses IP, n=5): no effect
different subtypes of red blood cells, platelets and hematocrit (C57BL/6J mice; 3 doses PO or 3 doses IP, n=5): no effect
different subtypes of white blood cells (C57BL/6J mice; 3 doses PO or 3 doses IP, n=5): no effect
tested metabolic values (C57BL/6J mice; [4]): in normal range
whole blood counts and white cells differentiation (C57BL/6J mice; [4]): no significant changes
tissues morphology, microscopic evaluation (C57BL/6J mice; liver, spleen, lungs, heart, kidneys, IP and PO): no changes
monocyte phenotype, CD115 expression (shift in pattern of gates 1-4) ([1]; C57BL/6 mouse monocytes): reduced differentiation
amount of activated (high macrophages) [1, 5]: considerably decreased
level of non-activated (low macrophage) [1, 5]: elevated
junctional integrity ([2]; HUVECs co-culture): maintained
Fluttering at HUVEC intercellular junctions ([2]; all HUVECs co-culture experiments): observed
